Assay results from ChEMBL document CHEMBL1201862, “PubChem BioAssay data set” (2004).
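Step 1: Grow cells in 96-well plates. Step 2: Expose to compound for 48 hours at 5 concentrations. Step 3: Interpolate endpoints linearly; if unreached, use highest concentration. GI50 marks 50% less growth.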 Activity calls are given as the source filed them. No stated cut-off is given here; in the data, active = GI50 up to about 1.1 µM and inactive = higher.

Columns and labels:
Experiment in all cases: DTP human tumour cell line panel, 48 h
A549 = system: A549
HCC 2998 = system: HCC 2998
HCT-116 = system: HCT-116
HOP-62 = system: HOP-62
KM12 = system: KM12
LOX IMVI = system: LOX IMVI
NCI-H23 = system: NCI-H23
NCI-H460 = system: NCI-H460
NCI-H522 = system: NCI-H522
OVCAR-3 = system: OVCAR-3
OVCAR-4 = system: OVCAR-4
SF-295 = system: SF-295
SF-539 = system: SF-539
SK-MEL-2 = system: SK-MEL-2
SK-OV-3 = system: SK-OV-3
SNB-19 = system: SNB-19
SR = system: SR
RPMI-8226 = system: RPMI-8226

| Compound | GI50 (A549) | GI50 (HCC 2998) | GI50 (HCT-116) | GI50 (HOP-62) | GI50 (KM12) | GI50 (LOX IMVI) | GI50 (NCI-H23) | GI50 (NCI-H460) | GI50 (NCI-H522) | GI50 (OVCAR-3) | GI50 (OVCAR-4) | GI50 (SF-295) | GI50 (SF-539) | GI50 (SK-MEL-2) | GI50 (SK-OV-3) | GI50 (SNB-19) | GI50 (SR) | GI50 (RPMI-8226) |
| --- | --- | --- | --- | --- | --- | --- | --- | --- | --- | --- | --- | --- | --- | --- | --- | --- | --- | --- |
| CN(C)NC1=C([N+](=O)[O-])C=NN(c2ccccc2)C1 | 2.1 µM (inactive) | 1.79 µM (inactive) | 1.82 µM (inactive) | 2.16 µM (inactive) | 2.52 µM (inactive) | 1.59 µM (inactive) | 1.87 µM (inactive) | 2.09 µM (inactive) | 0.177 µM (active) | 1.85 µM (inactive) | 1.66 µM (inactive) | 1.81 µM (inactive) | 1.89 µM (inactive) | 1.71 µM (inactive) | 1.97 µM (inactive) | 2.54 µM (inactive) | 0.811 µM (active) |  |
| COc1ccc(N(C)Sc2ccccc2)cc1 | 39.4 µM (inactive) | > 100 µM (inactive) | 43.7 µM (inactive) | 95.5 µM (inactive) | 56.6 µM (inactive) | 31.1 µM (inactive) | 83.4 µM (inactive) | 74.5 µM (inactive) | 38.8 µM (inactive) | 52.4 µM (inactive) |  | 55.1 µM (inactive) | 20.4 µM (inactive) | 65.5 µM (inactive) | > 100 µM (inactive) | 51.1 µM (inactive) | 43.7 µM (inactive) | 36.1 µM (inactive) |
| C=C=C(C(=O)OC)[S+]([O-])c1ccc([N+](=O)[O-])cc1[N+](=O)[O-] (configuration not stated) | 52.7 µM (inactive) | 14.7 µM (inactive) | 21.4 µM (inactive) | > 45.3 µM (inactive) | 33.7 µM (inactive) | 21.5 µM (inactive) | 53.8 µM (inactive) | > 66.7 µM (inactive) | 14.2 µM (inactive) | 25.3 µM (inactive) | 35.6 µM (inactive) | > 92.7 µM (inactive) | 26.1 µM (inactive) | 44.5 µM (inactive) | > 84.7 µM (inactive) | 56 µM (inactive) | 14.1 µM (inactive) | 21.7 µM (inactive) |
| COCOCCCCCO[Si](C)(C)C(C)(C)C | 19.5 µM (inactive) | 17.7 µM (inactive) | 12.9 µM (inactive) |  | 23.2 µM (inactive) | 16.5 µM (inactive) | 17.2 µM (inactive) | 19.6 µM (inactive) | 13.7 µM (inactive) | 14.4 µM (inactive) |  | 14.8 µM (inactive) | 19.1 µM (inactive) | 16 µM (inactive) | 40.6 µM (inactive) | 16 µM (inactive) | 18.2 µM (inactive) | 16.5 µM (inactive) |
| CN(C)CCNC(=O)c1cccc2c1nc(-c1ccccn1)c1ccccc12 | 11.8 µM (inactive) | 15.7 µM (inactive) | 10.3 µM (inactive) | 15.1 µM (inactive) | 28.3 µM (inactive) | > 10 µM (inactive) | 15.7 µM (inactive) | 7.26 µM (inactive) |  | 17.4 µM (inactive) | 17.3 µM (inactive) | 17.6 µM (inactive) | 16.4 µM (inactive) | 18.8 µM (inactive) | 17.4 µM (inactive) | 30.7 µM (inactive) |  |  |
| S=C1OC2C3C4CC5C3C(O1)C1C5C4C21 (configuration not stated) | > 100 µM (inactive) | > 100 µM (inactive) | 45.2 µM (inactive) | > 100 µM (inactive) | > 100 µM (inactive) | 74 µM (inactive) |  | 58.5 µM (inactive) | > 100 µM (inactive) | > 100 µM (inactive) | > 100 µM (inactive) | > 100 µM (inactive) | > 100 µM (inactive) |  | > 100 µM (inactive) | > 100 µM (inactive) | > 100 µM (inactive) | > 100 µM (inactive) |
| COc1ccc(OC)c(NC(=O)CCC/C(CC(=O)c2ccc(O)c(OC)c2)=N\NC(=O)C[N+](C)(C)C)c1 | > 100 µM (inactive) | > 100 µM (inactive) |  | > 100 µM (inactive) | > 100 µM (inactive) | > 100 µM (inactive) | > 100 µM (inactive) | > 100 µM (inactive) | > 100 µM (inactive) | > 100 µM (inactive) | > 100 µM (inactive) | > 100 µM (inactive) | > 100 µM (inactive) | > 100 µM (inactive) | > 100 µM (inactive) | > 100 µM (inactive) | > 100 µM (inactive) | 79.3 µM (inactive) |
| COc1ccc(C(=O)NCCC2=CCCCC2)cc1 | > 100 µM (inactive) |  | > 100 µM (inactive) | > 100 µM (inactive) | > 100 µM (inactive) | > 100 µM (inactive) | > 100 µM (inactive) | > 100 µM (inactive) |  | > 100 µM (inactive) | > 100 µM (inactive) | > 100 µM (inactive) | > 100 µM (inactive) | > 100 µM (inactive) |  | > 100 µM (inactive) | > 100 µM (inactive) | > 100 µM (inactive) |
| [O-][S+]1CSCS1 (configuration not stated) | > 100 µM (inactive) | > 100 µM (inactive) | > 100 µM (inactive) | > 100 µM (inactive) | > 100 µM (inactive) | > 100 µM (inactive) | > 100 µM (inactive) |  | > 100 µM (inactive) | > 100 µM (inactive) | > 100 µM (inactive) | > 100 µM (inactive) | > 100 µM (inactive) | > 100 µM (inactive) | > 100 µM (inactive) | > 100 µM (inactive) | > 100 µM (inactive) |  |
